Where two headings read alike, the source gives them in different places.
Molecular target: human Cat S (Homo sapiens (Human), UniProt P25774)
Assay: Cathepsin enzyme inhibition assay (fluorogenic peptide substrate)
Format: biochemical
Conditions: read-out: CatS IC50
Experimental: Cathepsin Enzyme Inhibition Assay
Enzyme activity is measured by observing the increase in fluorescence intensity caused by cleavage of a peptide substrate containing a fluorophore whose emission is quenched in the intact peptide.
Assay buffer: 100 mM potassium phosphate pH 6.5, EDTA-Na 5 mM, Triton X-100 0.001%, DTT 5 mM.
Enzymes (all at 1 nM): human and mouse Cathepsin S, Cat K, Cat B, Cat L.
Substrate ([…], except for Cat K which uses Z-Leu-Arg-AMC (both from Bachem).
Excitation 360 nm, Emission 465 nm.
Enzyme is added to the substance dilutions in 96-well microtitre plates and the reaction is started with substrate. […] IC50 are calculated by standard methods.
Inhibition of human Cat S, mouse Cat S, human Cat K, mouse Cat K, human Cat B, mouse Cat B, human Cat L and mouse Cat L have been measured separately.

[1] = human Cat S, enzyme 1 nM, substrate Z-Val-Val-Arg-AMC, pH 6.5

Sequence of human Cat S (P25774 115-331): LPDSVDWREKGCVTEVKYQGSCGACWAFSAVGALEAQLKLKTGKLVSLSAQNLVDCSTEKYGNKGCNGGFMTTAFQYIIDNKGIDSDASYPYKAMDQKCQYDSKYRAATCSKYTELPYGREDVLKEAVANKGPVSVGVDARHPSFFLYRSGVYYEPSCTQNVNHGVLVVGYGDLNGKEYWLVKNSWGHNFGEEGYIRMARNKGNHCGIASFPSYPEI

Row | Compound | IC50 [1] | IC50
1 | Cc1[nH]c(-c2ccc(Cl)c(F)c2)nc1CN1CCC(N2Cc3ccccc3NC2=O)CC1 [Example 50, 3-{1-[2-(4-Chloro-3-fluoro-phenyl)-5-methyl-1H-imidazol-4-ylmethyl]-piperidin-4-yl}-3,4-dihydro-1H-quinazolin-2-one] | 605 nM | 
2 | Cn1nc(CN2CCC(N3Cc4ccccc4NC3=O)CC2)nc1-c1ccc(C(F)(F)F)cc1 [Example 66, 3-{1-[1-Methyl-5-(4-trifluoromethyl-phenyl)-1H-[1,2,4]triazol-3-ylmethyl]-piperidin-4-yl}-3,4-dihydro-1H-quinazolin-2-one] | 450 nM | 
3 | Cc1[nH]c(-c2ccc(C(F)(F)F)cc2Cl)nc1CN1CCC(N2Cc3ccccc3NC2=O)CC1 [Example 59, 3-{1-[2-(2-Chloro-4-trifluoromethyl-phenyl)-5-methyl-1H-imidazol-4-ylmethyl]-piperidin-4-yl}-3,4-dihydro-1H-quinazolin-2-one] | 285 nM | 
4 | Cc1[nH]c(-c2ccc(C(F)(F)F)c(F)c2)nc1CN1CCC(n2c(=O)n(C)c3ccccc32)CC1 [Example 44, 1-{1-[2-(3-Fluoro-4-trifluoromethyl-phenyl)-5-methyl-1H-imidazol-4-ylmethyl]-piperidin-4-yl}-3-methyl-1,3-dihydro-benzoimidazol-2-one] | 385 nM | 
5 | Cc1[nH]c(-c2ccc(C(F)(F)F)cc2Cl)nc1CN1CCC(n2c(=O)n(C)c3ccccc32)CC1 [Example 60, 1-{1-[2-(2-Chloro-4-trifluoromethyl-phenyl)-5-methyl-1H-imidazol-4-ylmethyl]-piperidin-4-yl}-3-methyl-1,3-dihydro-benzoimidazol-2-one] | 915 nM | 
6 | Cc1[nH]c(-c2ccc(S(=O)(=O)C(F)(F)F)cc2)nc1CN1CCC(n2c(=O)n(C)c3ccccc32)CC1 [Example 75, 1-Methyl-3-{1-[5-methyl-2-(4-trifluoromethanesulfonyl-phenyl)-1H-imidazol-4-ylmethyl]-piperidin-4-yl}-1,3-dihydro-benzoimidazol-2-one] | 60 nM | 
7 | Cc1[nH]c(-c2ccc(C(F)(F)F)cc2)nc1CN1CCC(n2cnc3ccccc32)CC1 [Example 3, 1-{1-[5-Methyl-2-(4-trifluoromethyl-phenyl)-1H-imidazol-4-ylmethyl]-piperidin-4-yl}-1H-benzoimidazole] | 450 nM | 
8 | Cc1nc(-c2ccc(C(F)(F)F)cc2)[nH]c1CN1CCC(N2CCCCC2=O)CC1 [Example 8, 1-[1-[[4-Methyl-2-[4-(trifluoromethyl)phenyl]-1H-imidazol-5-yl]methyl]-4-piperidyl]piperidin-2-one] | 3280 nM | 
9 | Cc1[nH]c(-c2ccc(C(F)(F)F)cc2)nc1CN1CCC(c2c[nH]c3ccncc23)CC1 [Example 63, 3-{1-[5-Methyl-2-(4-trifluoromethyl-phenyl)-1H-imidazol-4-ylmethyl]-piperidin-4-yl}-1H-pyrrolo[3,2-c]pyridine] | 667 nM | 
10 | Cc1[nH]c(-c2ccc(C(F)(F)F)cc2)nc1CN1CCC(n2c(=O)n(CCS(C)(=O)=O)c3cc(Cl)ccc32)CC1 [Example 35, 5-Chloro-3-(2-methanesulfonyl-ethyl)-1-{1-[5-methyl-2-(4-trifluoromethyl-phenyl)-1H-imidazol-4-ylmethyl]-piperidin-4-yl}-1,3-dihydro-benzoimidazol-2-one] | 257 nM | 
11 | Cc1nn(-c2ccc(C(F)(F)F)cc2)cc1CN1CCC(N2Cc3ccccc3NC2=O)CC1 [Example 52, 3-{1-[3-Methyl-1-(4-trifluoromethyl-phenyl)-1H-pyrazol-4-ylmethyl]-piperidin-4-yl}-3,4-dihydro-1H-quinazolin-2-one] | 1380 nM | 
12 | Cc1[nH]c(-c2ccc(C(F)(F)F)cc2)nc1CN1CCC(N2Cc3ccccc3NC2=O)CC1 [Example 28, 3-{1-[5-Methyl-2-(4-trifluoromethyl-phenyl)-1H-imidazol-4-ylmethyl]-piperidin-4-yl}-3,4-dihydro-1H-quinazolin-2-one] | 190 nM | 
13 | Cc1nc(-c2ccc(C(F)(F)F)cc2)[nH]c1CN1CCC(n2cc(-c3ccc(Br)cc3)[nH]c2=O)CC1 [Example 12, 5-(4-Bromophenyl)-3-[1-[[4-methyl-2-[4-(trifluoromethyl)phenyl]-1H-imidazol-5-yl]methyl]-4-piperidyl]-1H-imidazol-2-one] | 590 nM | 
14 | COCCn1c(=O)n(C2CCN(Cc3nc(-c4ccc(C(F)(F)F)cc4)[nH]c3C)CC2)c2ccc(Cl)cc21 [Example 27, 5-Chloro-3-(2-methoxy-ethyl)-1-{1-[5-methyl-2-(4-trifluoromethyl-phenyl)-1H-imidazol-4-ylmethyl]-piperidin-4-yl}-1,3-dihydro-benzoimidazol-2-one] | 220 nM | 
15 | Cc1[nH]c(-c2ccc(C(F)(F)F)cc2)nc1CN1CCC(n2c(=O)n(CCO)c3cc(Cl)ccc32)CC1 [Example 30, 5-Chloro-3-(2-hydroxy-ethyl)-1-{1-[5-methyl-2-(4-trifluoromethyl-phenyl)-1H-imidazol-4-ylmethyl]-piperidin-4-yl}-1,3-dihydro-benzoimidazol-2-one] | 230 nM | 
16 | Cc1[nH]c(-c2ccc(C(F)(F)F)cc2)nc1CN1CCC(n2c(=O)[nH]c3ccc(N4CCN(C)CC4)cc32)CC1 [Example 11, 6-(4-Methyl-piperazin-1-yl)-1-{1-[5-methyl-2-(4-trifluoromethyl-phenyl)-1H-imidazol-4-ylmethyl]-piperidin-4-yl}-1,3-dihydro-benzoimidazol-2-one] | 460 nM | 
17 | Cc1[nH]c(-c2ccc(C(F)(F)F)cc2)nc1CN1CCC(c2noc3cc(F)ccc23)CC1 [Example 37, 6-Fluoro-3-{1-[5-methyl-2-(4-trifluoromethyl-phenyl)-1H-imidazol-4-ylmethyl]-piperidin-4-yl}-benzo[d]isoxazole] | 595 nM | 
18 | COCCc1[nH]c(-c2ccc(C(F)(F)F)cc2)nc1CN1CCC(N2Cc3ccccc3NC2=O)CC1 [Example 55, 3-{1-[5-(2-Methoxy-ethyl)-2-(4-trifluoromethyl-phenyl)-1H-imidazol-4-ylmethyl]-piperidin-4-yl}-3,4-dihydro-1H-quinazolin-2-one] | 350 nM | 
19 | Cc1[nH]c(-c2ccc(C(F)(F)F)cc2)nc1CN1CCC(c2c[nH]c3ccccc23)CC1 [Example 36, 3-{1-[5-Methyl-2-(4-trifluoromethyl-phenyl)-1H-imidazol-4-ylmethyl]-piperidin-4-yl}-1H-indole] | 770 nM | 
20 | Cc1[nH]c(-c2ccc(Cl)c(Cl)c2)nc1CN1CCC(N2Cc3ccccc3NC2=O)CC1 [Example 42, 3-{1-[2-(3,4-Dichloro-phenyl)-5-methyl-1H-imidazol-4-ylmethyl]-piperidin-4-yl}-3,4-dihydro-1H-quinazolin-2-one] | 287 nM | 
21 | Cc1[nH]c(-c2ccc(C(F)(F)F)cc2)nc1CN1CCC(N2C(=O)COc3ccccc32)CC1 [Example 19, 4-{1-[5-Methyl-2-(4-trifluoromethyl-phenyl)-1H-imidazol-4-ylmethyl]-piperidin-4-yl}-4H-benzo[1,4]oxazin-3-one] |  | 470 nM
22 | Cc1[nH]c(-c2ccc(C(F)(F)F)cc2)nc1CN1CCC(n2c(=O)[nH]c3ccc(N4CCOCC4)cc32)CC1 [Example 10, 1-{1-[5-Methyl-2-(4-trifluoromethyl-phenyl)-1H-imidazol-4-ylmethyl]-piperidin-4-yl}-6-morpholin-4-yl-1,3-dihydro-benzoimidazol-2-one] | 280 nM | 
23 | Cc1[nH]c(-c2ccc(C(F)(F)F)cc2)nc1CN1CCC(N2Cc3ccc(F)cc3NC2=O)CC1 [Example 25, 7-Fluoro-3-{1-[5-methyl-2-(4-trifluoromethyl-phenyl)-1H-imidazol-4-ylmethyl]-piperidin-4-yl}-3,4-dihydro-1H-quinazolin-2-one] | 180 nM | 
24 | Cc1[nH]c(-c2ccc(C(F)(F)F)cc2)nc1CN1CCC(n2c(=O)n(CC(N)=O)c3cc(Cl)ccc32)CC1 [Example 31, 2-(6-Chloro-3-{1-[5-methyl-2-(4-trifluoromethyl-phenyl)-1H-imidazol-4-ylmethyl]-piperidin-4-yl}-2-oxo-2,3-dihydro-benzoimidazol-1-yl)-acetamide] | 310 nM | 
25 | COCCn1c(-c2ccc(C(F)(F)F)cc2)nc(CN2CCC(N3Cc4ccccc4NC3=O)CC2)c1C [Example 76, 3-{1-[1-(2-Methoxy-ethyl)-5-methyl-2-(4-trifluoromethyl-phenyl)-1H-imidazol-4-ylmethyl]-piperidin-4-yl}-3,4-dihydro-1H-quinazolin-2-one] | 317 nM | 
26 | Cc1cn(-c2ccc(C(F)(F)F)cc2)nc1CN1CCC(N2Cc3ccccc3NC2=O)CC1 [Example 68, 3-{1-[4-Methyl-1-(4-trifluoromethyl-phenyl)-1H-pyrazol-3-ylmethyl]-piperidin-4-yl}-3,4-dihydro-1H-quinazolin-2-one] | 650 nM | 
27 | O=C1Nc2ccc(Br)cc2CN1C1CCN(Cc2cnc(-c3ccc(C(F)(F)F)cc3)[nH]2)CC1 [Example 17, 6-Bromo-3-[1-[[2-[4-(trifluoromethyl)phenyl]-1H-imidazol-5-yl]methyl]-4-piperidyl]-1,4-dihydroquinazolin-2-one] | 195 nM | 
28 | Cc1[nH]c(-c2ccc(Cl)c(Cl)c2)nc1CN1CCC(c2c[nH]c3ncccc23)CC1 [Example 49, 3-{1-[2-(3,4-Dichloro-phenyl)-5-methyl-1H-imidazol-4-ylmethyl]-piperidin-4-yl}-1H-pyrrolo[2,3-b]pyridine] | 1200 nM | 
29 | Cc1c(CN2CCC(N3Cc4ccccc4NC3=O)CC2)nc(-c2ccc(C(F)(F)F)cc2)n1C [Example 71, 3-{1-[1,5-Dimethyl-2-(4-trifluoromethyl-phenyl)-1H-imidazol-4-ylmethyl]-piperidin-4-yl}-3,4-dihydro-1H-quinazolin-2-one] | 84 nM | 
